Molecules are shown by their SMILES.

The record followed here is patent US20040171086A1, “Selective modulation of TLR-mediated biological activity” (3M Innovative Properties Company, priority 2003, published 2004).

For assay [1], the target named is T1, TLR6 (Homo sapiens, UniProt Q9Y2C9).
T1 construct: expressed in transfected cells; host or cells: Namalwa (ATCC CRL-1432), pCI-TLR6 vector, G418 selected
T1 sequence (Q9Y2C9 32-796): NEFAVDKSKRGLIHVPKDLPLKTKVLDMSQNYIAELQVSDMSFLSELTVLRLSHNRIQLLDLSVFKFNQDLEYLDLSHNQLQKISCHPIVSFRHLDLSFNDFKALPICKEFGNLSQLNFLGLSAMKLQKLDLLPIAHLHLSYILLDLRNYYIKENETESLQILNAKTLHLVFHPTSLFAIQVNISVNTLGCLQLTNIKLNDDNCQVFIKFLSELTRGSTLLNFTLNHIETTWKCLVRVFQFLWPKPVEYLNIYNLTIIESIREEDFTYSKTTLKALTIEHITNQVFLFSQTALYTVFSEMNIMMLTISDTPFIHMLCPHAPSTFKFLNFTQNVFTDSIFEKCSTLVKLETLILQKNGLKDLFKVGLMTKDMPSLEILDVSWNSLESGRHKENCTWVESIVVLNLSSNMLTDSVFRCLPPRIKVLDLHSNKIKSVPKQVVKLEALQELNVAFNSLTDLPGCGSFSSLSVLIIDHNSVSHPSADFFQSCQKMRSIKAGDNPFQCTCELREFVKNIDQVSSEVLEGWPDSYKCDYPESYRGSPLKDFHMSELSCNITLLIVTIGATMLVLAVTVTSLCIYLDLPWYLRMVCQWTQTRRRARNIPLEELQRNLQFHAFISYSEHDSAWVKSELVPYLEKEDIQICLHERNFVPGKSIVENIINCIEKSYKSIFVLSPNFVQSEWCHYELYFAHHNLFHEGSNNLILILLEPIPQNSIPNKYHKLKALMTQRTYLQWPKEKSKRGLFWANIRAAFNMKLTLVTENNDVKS
Put plainly: IFN-α1-luciferase reporter assay in genetically modified Namalwa cells, TLR6. Conditions: 10 μM IRM, 18 hours. The format is cell-based. The method, then: (§1) Results are shown in Table 6 and are expressed as fold induction of IFN-α1 —induced luciferase signal, again with respect to a vehicle control.
(§2) The assay identified TLR6-selective compounds (i.e., compounds that modulate TLR6-mediated activity, but not TLR7-mediated activity), TLR7-selective compounds (compounds that modulate TLR7-mediated activity, but not TLR6-mediated activity), and compounds that modulate cellular activity through both TLR6 and TLR7.
(§3) Unless otherwise indicated, all incubations were performed at 37° C. with 5% CO2 at 98% humidity.
(§4) Culture medium was prepared from complete RPMI 1640 medium (BioSource International, Inc., Camarillo, Calif.). Fetal bovine serum (Atlas Biologicals, Inc., Ft. Collins, Colo.) was added to a final concentration of 7.5% (vol/vol); L-glutamine (BioSource International, Inc.) was added to 5 mM; and sodium pyruvate (BioSource International, Inc.) was added to 1 mM.
Namalwa cells were grown by incubation in culture medium overnight. Cells were harvested by centrifugation in a tabletop centrifuge (1200 RPM for 5 minutes), and then resuspended in phosphate buffered sucrose to a concentration of 1.3×10^7 cells/mL.
For each transfection, a 750 μL aliquot of the cell suspension was placed in an electroporation cuvette with 4 mm gaps. 10 μg of the pIFN-α1-luc vector and 10 μg of the pCI-TLR6 vector were added to the electroporation cuvette. The cell and vector mixtures were incubated at room temperature for 5 minutes. The cells were electroporated using a BioRad Gene Pulser (BioRad Laboratories, Hercules, Calif.) set to at 500 μF capacitance and […], then incubated at room temperature for 5 minutes.
(§5) The electroporated cells were suspended in 10 mLs of culture medium and incubated overnight. Dead cells and debris were removed after 24 hours using a MACS Dead Cell Removal kit (Miltenyi Biotec, Auburn, Calif.). Cells were resuspended in 10 mL of culture medium and incubated for an additional 24 hours.
(§6) Transfected cells were selected by adding G418 (Promega Corp., Madison, Wis.) to a final concentration of 1 mg/mL and incubating the cells for seven days.
(§7) The selected transfected cells were counted and resuspended to a concentration of 1×10^6 cell per mL in culture medium. 100 μl aliquots of cells were placed in the wells of a white-walled, white-bottomed 96-well plate (Corning, Inc., Corning, N.Y.). 1.0 μL of an IRM compound from Table 1 (prepared at 1 mM in 100% DMSO) was added to some cell aliquots so that the final concentration of IRM compound was 10 μM. As a positive control, some cell aliquots were incubated with Sendai virus instead of IRM compound. As a negative control, some cell aliquots were incubated with DMSO without IRM compound. In all cases, the cells were incubated for 18 hours.
(§8) The plates were equilibrated to room temperature before one volume of reconstituted LucLight Plus (Packard Instruments, Meriden, Conn.) was added to each aliquot of cells. Each well of the plate was read on an LJL Analyst (LJL Biosystems, Inc., Sunnyvale, Calif.) set with a 5 minute dark adapt. Results are shown in Table 6 and are expressed as fold increase of the IFN-αl—induced luciferase signal compared to a DMSO control.
In general terms: Reporter assays use an easily measured gene product as a stand-in for the process of interest.

The target of assay [2] is T2, TLR7 (Homo sapiens, UniProt Q9NYK1).
T2 sequence (Q9NYK1 27-1049): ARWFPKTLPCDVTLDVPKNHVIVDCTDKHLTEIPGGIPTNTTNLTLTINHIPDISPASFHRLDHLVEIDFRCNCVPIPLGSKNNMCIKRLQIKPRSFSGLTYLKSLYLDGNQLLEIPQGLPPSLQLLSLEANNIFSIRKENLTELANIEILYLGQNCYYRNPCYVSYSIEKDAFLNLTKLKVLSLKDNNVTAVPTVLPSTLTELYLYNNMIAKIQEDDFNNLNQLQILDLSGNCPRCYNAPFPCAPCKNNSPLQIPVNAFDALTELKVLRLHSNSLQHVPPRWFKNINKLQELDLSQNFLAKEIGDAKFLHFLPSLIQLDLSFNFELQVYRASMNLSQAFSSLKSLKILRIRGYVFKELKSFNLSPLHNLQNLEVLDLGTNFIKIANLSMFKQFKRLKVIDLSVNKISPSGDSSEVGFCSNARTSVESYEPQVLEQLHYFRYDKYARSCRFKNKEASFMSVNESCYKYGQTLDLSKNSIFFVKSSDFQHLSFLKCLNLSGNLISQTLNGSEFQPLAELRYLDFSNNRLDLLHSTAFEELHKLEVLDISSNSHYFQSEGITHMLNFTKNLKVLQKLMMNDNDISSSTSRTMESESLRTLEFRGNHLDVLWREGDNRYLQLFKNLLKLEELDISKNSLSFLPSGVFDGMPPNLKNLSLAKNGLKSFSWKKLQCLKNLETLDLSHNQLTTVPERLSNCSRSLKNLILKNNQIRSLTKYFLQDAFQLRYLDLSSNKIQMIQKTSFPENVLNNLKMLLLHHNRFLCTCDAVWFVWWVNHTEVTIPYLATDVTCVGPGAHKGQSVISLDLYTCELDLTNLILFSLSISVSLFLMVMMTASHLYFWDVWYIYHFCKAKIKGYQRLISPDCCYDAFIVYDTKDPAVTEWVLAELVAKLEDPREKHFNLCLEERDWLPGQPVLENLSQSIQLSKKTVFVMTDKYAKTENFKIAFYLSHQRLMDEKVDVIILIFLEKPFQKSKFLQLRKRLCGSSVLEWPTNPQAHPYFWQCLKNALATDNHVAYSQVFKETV
Put plainly: IFN-α1-luciferase reporter assay in genetically modified Namalwa cells, TLR7. The format is cell-based. Details: expressed in transfected cells; host or cells: Namalwa (ATCC CRL-1432). The conditions noted are these: 10 μM IRM, 18 hours. The method, then:
as §1, §2, §3, §4
Namalwa cells were grown by incubation in culture medium overnight. Cells were harvested by centrifugation in a tabletop centrifuge (1200 RPM for 5 minutes), and then resuspended in phosphate buffered sucrose to a concentration of 1.3×10^7 cells/mL. […]
as §5, §6, §7, §8

For the compound `CCCCc1nc2c(N)nc3cccnc3c2n1CCNC(=O)c1ccc(Br)o1` [IRM23, N^2-[2-(4-amino-2-butyl-1H-imidazo[4,5-c][1,5]naphthyridin-1-yl)ethyl]-5-bromo-2-furamide], the “TLR6: fold increase of the IFN-α1-induced luciferase signal compared to a DMSO control” value (from here on “TLR6: fold increase”) in assay [1] is reported as 0.90 fold increase. The “TLR7: fold increase of the IFN-α1-induced luciferase signal compared to a DMSO control” value (from here on “TLR7: fold increase”) in assay [2] came to 2.02 fold increase.

On to `Nc1nc2ccccc2c2c1ncn2CCCCNC(=O)c1cccc2ccccc12` [IRM24, N^1-[4-(4-amino-1H-imidazo[4,5-c]quinolin-1-yl)butyl]-1-naphthamide], for which the “TLR6: fold increase” value in assay [1] is reported as 0.00 fold increase. In addition, the “TLR7: fold increase” value in assay [2] is reported as 3.38 fold increase.

For the compound `CN(C)c1cccc(CCCOCCn2cnc3c(N)nc4ccccc4c32)c1` [IRM25, 1-(2-{3-[3-(dimethylamino)phenyl]propoxy}ethyl)-1H-imidazo[4,5-c]quinolin-4-amine], the “TLR6: fold increase” value in assay [1] was 0.04 fold increase. In assay [2], the “TLR7: fold increase” value is on record as 2.89 fold increase.

As to `CCOCc1nc2c(N)nc(C)c(C)c2n1CCNS(C)(=O)=O` [IRM26, N-{2-[4-amino-2-(ethoxymethyl)-6,7-dimethyl-1H-imidazo[4,5-c]pyridin-1-yl]ethyl}methanesulfonamide], in assay [1], the “TLR6: fold increase” value is 1.50 fold increase. Also, in assay [2], the “TLR7: fold increase” value came to 2.48 fold increase.

For `CCCCc1nc2c(N)nc3ccccc3c2s1` [IRM27, 2-butylthiazolo[4,5-c]quinolin-4-amine], the “TLR6: fold increase” value in assay [1] was determined as 6.28 fold increase. The “TLR7: fold increase” value in assay [2] was 1.32 fold increase.

As to `Nc1nc2ccccc2c2c1ncn2CCCCNC(=O)c1cnc2ccccc2c1` [IRM28, N^3-[4-(4-amino-1H-imidazo[4,5-c]quinolin-1-yl)butyl]-3-quinolinecarboxamide], the “TLR6: fold increase” value in assay [1] came out at 2.27 fold increase. In assay [2], the “TLR7: fold increase” value stood at 0.96 fold increase.

For `Nc1nc2ccccc2c2c1ncn2COCCOc1ccc([N+](=O)[O-])cc1` [IRM29, 1-{[2-(4-nitrophenoxy)ethoxy]methyl}-1H-imidazo[4,5-c]quinolin-4-amine], in assay [1], the “TLR6: fold increase” value turned out to be 4.57 fold increase. Also, the “TLR7: fold increase” value in assay [2] came out at 1.32 fold increase.

As to `CCCCc1nc2c(N)nc3ccccc3c2n1CCCCNS(=O)(=O)c1ccc2ccccc2c1` [IRM30, N^2-[4-(4-amino-2-butyl-1H-imidazo[4,5-c]quinolin-1-yl)butyl]-2-naphthalenesulfonamide], the “TLR6: fold increase” value in assay [1] is 4.38 fold increase. The “TLR7: fold increase” value in assay [2] was 1.28 fold increase.

In the case of `Nc1nc2ccccc2c2c1ncn2CCOCc1cc2ccccc2o1` [IRM31, 1-[2-(benzo[b]furan-2-ylmethoxy)ethyl]-1H-imidazo[4,5-c]quinolin-4-amine], in assay [1], the “TLR6: fold increase” value is given as 3.40 fold increase. Besides, the “TLR7: fold increase” value in assay [2] is listed as 1.63 fold increase.

Turning to `CCCCc1nc2c(N)nc3ccccc3c2n1CCCNC(=O)Nc1ccccc1` [IRM32, N-[3-(4-amino-2-butyl-1H-imidazo[4,5-c]quinolin-1-yl)propyl]-N′-phenylurea], in assay [1], the “TLR6: fold increase” value is 7.47 fold increase. Moreover, the “TLR7: fold increase” value in assay [2] was 1.77 fold increase.

In the case of `Cc1nc(N)c2nc(C)n(CCCCCS(=O)(=O)c3ccccc3)c2c1C` [IRM33, 1-(5-benzenesulfonyl-pentyl)-2,6,7-trimethyl-1H-imidazo[4,5-c]pyridin-4-ylamine], in assay [1], the “TLR6: fold increase” value turned out to be 13.12 fold increase. The “TLR7: fold increase” value in assay [2] came out at 1.99 fold increase.

In the case of `Cc1nc2c(N)nc3ccccc3c2n1CC(C)(C)O` [IRM34, 4-amino-α,α,2-trimethyl-1H-imidazo[4,5-c]quinoline-1-ethanol], in assay [1], the “TLR6: fold increase” value was 10.80 fold increase. The “TLR7: fold increase” value in assay [2] was 3.37 fold increase.

On to `Nc1nc2ccccc2c2c1ncn2CCOCCCc1cccnc1` [IRM35, 1-{2-[3-(3-pyridyl)propoxy]ethyl}-1H-imidazo[4,5-c]quinolin-4-amine], for which the “TLR6: fold increase” value in assay [1] is reported as 6.72 fold increase. The “TLR7: fold increase” value in assay [2] came out at 2.33 fold increase.
